Experimental data reported in article PMC8536124 (International Journal of Molecular Sciences, 2021).

Key:
HL-60(TB) = test: NCI-60 screening (SRB); assay type: cell-based, human; conditions: HL-60(TB), five-dose
Breast cancer = test: NCI-60 screening (SRB), subpanel; assay type: cell-based
Source text: (§1) The experimental data allow the assessment of the cytostatic effect, indicated by growth inhibition values ranging between 0 and 100, as well as of the cytotoxic effect, indicated by negative values.
(§2) The mean GI50 (molar concentration of the compound that inhibits 50% net cell growth), TGI (molar concentration of the compound leading to the total inhibition), and LC50 (molar concentration of the compound leading to 50% net cell death (presented in negative logarithm)) values across each cell line are shown in Table 2.
(§3) The selectivity index (SI), calculated as the ratio between the full panel MG_MID60 (μM) of compounds 4, 6, and 9 by their respective subpanels MG_MID of the cell line (μM), was introduced as a quantification tool for the selectivity of each compound in terms of anticancer effect (Table 3).
(§4) Primary anticancer assays were performed according to the NCI protocol, as described elsewhere (see e.g., http://dtp.nci.nih.gov accessed on 1 November 2018). The compounds were added at a single concentration, and the cell cultures were incubated for 48 h. The end point determinations were made with a protein-binding dye, sulforhodamine B (SRB). […] The percentage of growth was evaluated spectrophotometrically versus controls not treated with test agents after 48 h exposure and using SRB protein assay to estimate cell viability or growth. Three antitumor activity dose-response parameters were calculated for each cell line. Furthermore, mean graph midpoints (MG_MID) were calculated for each of the parameters, giving an average activity parameter over all cell lines for the tested compound. For the MG_MID calculation, insensitive cell lines were included with the highest concentration tested.

Colon Cancer = test: NCI-60 screening (SRB), subpanel; assay type: cell-based
Source text: as §1, §2, §3, §4

Leukemia = test: NCI-60 screening (SRB), subpanel; assay type: cell-based; conditions: Leukemia; MG_MID60/subpanel MG_MID
Source text: as §1, §2, §3, §4

Melanoma = test: NCI-60 screening (SRB), subpanel; assay type: cell-based
Source text: as §1, §2, §3, §4

NSC lung cancer = test: NCI-60 screening (SRB), subpanel; assay type: cell-based
Source text: as §1, §2, §3, §4

Ovarian cancer = test: NCI-60 screening (SRB), subpanel; assay type: cell-based
Source text: as §1, §2, §3, §4

Prostate cancer = test: NCI-60 screening (SRB), subpanel; assay type: cell-based
Source text: as §1, §2, §3, §4

Renal Cancer = test: NCI-60 screening (SRB), subpanel; assay type: cell-based
Source text: as §1, §2, §3, §4

HT29 = test: NCI-60 screening (SRB); assay type: cell-based, human
SW-620 = test: NCI-60 screening (SRB); assay type: cell-based, human; conditions: five-dose
U251 = test: NCI-60 screening (SRB); assay type: cell-based, human; conditions: U251, five-dose
LOX IMVI = test: NCI-60 screening (SRB); assay type: cell-based, human
MALME-3M = test: NCI-60 screening (SRB); assay type: cell-based, human
SK-MEL-2 = test: NCI-60 screening (SRB); assay type: cell-based, human; conditions: five-dose
SK-MEL-5 = test: NCI-60 screening (SRB); assay type: cell-based, human; conditions: SK-MEL-5
UACC-257 = test: NCI-60 screening (SRB); assay type: cell-based, human; conditions: five-dose
A498 = test: NCI-60 screening (SRB); assay type: cell-based, human; conditions: A498, five-dose
ACHN = test: NCI-60 screening (SRB); assay type: cell-based, human; conditions: five-dose
CAKI-1 = test: NCI-60 screening (SRB); assay type: cell-based, human; conditions: CAKI-1, five-dose
SN12C = test: NCI-60 screening (SRB); assay type: cell-based, human; conditions: five-dose
TK-10 = test: NCI-60 screening (SRB); assay type: cell-based, human; conditions: five-dose
HS 578T = test: NCI-60 screening (SRB); assay type: cell-based, human; conditions: five-dose
MDA-MB-468 = test: NCI-60 screening (SRB); assay type: cell-based, human; conditions: five-dose
[1] = Homo sapiens, read-out: LC50 (the source's name)

CCN1CCN(C(=O)[C@]23CC[C@@H](C)[C@H](C)[C@H]2C2=CC[C@@H]4[C@@]5(C)CCC(=O)C(C)(C)[C@@H]5CC[C@@]4(C)[C@]2(C)CC3)CC1 [Compound 4, N-(3-oxo-ursan-12-en-28-oyl)-ethylpiperazine]
TGI (HL-60(TB)): 2740 nM | GI50 (HL-60(TB); Homo sapiens): 976 nM | CC50 (HL-60(TB); [1]): > 50000 nM | TGI MG_MID (Breast cancer; Breast cancer subpanel, five-dose): 2330 nM | SI (TGI) (Breast cancer; Breast cancer, MG_MID60/subpanel MG_MID): 1.17 | GI50 (Breast cancer; Homo sapiens, Breast cancer subpanel, five-dose, read-out: GI50 MG_MID): 970 nM | CC50 (Breast cancer; Homo sapiens, Breast cancer subpanel, five-dose, read-out: LC50 MG_MID): 16000 nM | TGI MG_MID (Colon Cancer; Colon Cancer subpanel, five-dose): 2030 nM | SI (TGI) (Colon Cancer; Colon Cancer, MG_MID60/subpanel MG_MID): 1.35 | GI50 (Colon Cancer; Homo sapiens, Colon Cancer subpanel, five-dose, read-out: GI50 MG_MID): 940 nM | CC50 (Colon Cancer; Homo sapiens, Colon Cancer subpanel, five-dose, read-out: LC50 MG_MID): 5920 nM | SI (TGI) (Leukemia): 1.12 | GI50 (Melanoma; Homo sapiens, Melanoma subpanel, five-dose, read-out: GI50 MG_MID): 930 nM | CC50 (Melanoma; Homo sapiens, Melanoma subpanel, five-dose, read-out: LC50 MG_MID): 4940 nM | TGI MG_MID (Melanoma; Melanoma subpanel, five-dose): 1930 nM | SI (TGI) (Melanoma; Melanoma, MG_MID60/subpanel MG_MID): 1.42 | GI50 (NSC lung cancer; Homo sapiens, NSC lung cancer subpanel, five-dose, read-out: GI50 MG_MID): 1180 nM | CC50 (NSC lung cancer; Homo sapiens, NSC lung cancer subpanel, five-dose, read-out: LC50 MG_MID): 17000 nM | TGI MG_MID (NSC lung cancer; NSC lung cancer subpanel, five-dose): 3600 nM | SI (TGI) (NSC lung cancer; NSCL cancer, MG_MID60/subpanel MG_MID): 0.76 | GI50 (Ovarian cancer; Homo sapiens, Ovarian cancer subpanel, five-dose, read-out: GI50 MG_MID): 1190 nM | CC50 (Ovarian cancer; Homo sapiens, Ovarian cancer subpanel, five-dose, read-out: LC50 MG_MID): 16200 nM | SI (TGI) (Ovarian cancer; Ovarian Cancer, MG_MID60/subpanel MG_MID): 0.77 | TGI MG_MID (Ovarian cancer; Ovarian cancer subpanel, five-dose): 3550 nM | GI50 (Prostate cancer; Homo sapiens, Prostate cancer subpanel, five-dose, read-out: GI50 MG_MID): 1270 nM | CC50 (Prostate cancer; Homo sapiens, Prostate cancer subpanel, five-dose, read-out: LC50 MG_MID): 18400 nM | TGI MG_MID (Prostate cancer; Prostate cancer subpanel, five-dose): 4400 nM | SI (TGI) (Prostate cancer; Prostate cancer, MG_MID60/subpanel MG_MID): 0.62 | GI50 (Renal Cancer; Homo sapiens, Renal cancer subpanel, five-dose, read-out: GI50 MG_MID): 950 nM | LC50 (50% net cell kill) (Renal Cancer; Homo sapiens, Renal cancer subpanel, five-dose, read-out: LC50 MG_MID): 8380 nM | SI (TGI) (Renal Cancer; Renal Cancer, MG_MID60/subpanel MG_MID): 1.08 | TGI MG_MID (Renal Cancer; Renal cancer subpanel, five-dose): 2530 nM | GI50 (HT29; Homo sapiens, HT-29, five-dose): 913 nM | CC50 (HT29; Homo sapiens, HT-29, five-dose, read-out: LC50 (the source's name)): 4590 nM | TGI (HT29; five-dose): 2050 nM | GI50 (SW-620; Homo sapiens): 902 nM | CC50 (SW-620; [1]): 3440 nM | TGI (SW-620): 1760 nM | GI50 (U251; Homo sapiens, U-251): 854 nM | CC50 (U251; Homo sapiens, U-251, read-out: LC50 (the source's name)): 4000 nM | TGI (U251): 1850 nM | GI50 (LOX IMVI; Homo sapiens, LOX IMVI, five-dose): 821 nM | CC50 (LOX IMVI; Homo sapiens, LOX IMVI, five-dose, read-out: LC50 (the source's name)): 2800 nM | TGI (LOX IMVI; LOX IMVI, five-dose): 1520 nM | Growth % (LOX IMVI; LOXIMVI (Melanoma), 1 dose 10 µM): −85.17% | GI50 (MALME-3M; Homo sapiens, MALME-3M, five-dose): 807 nM | CC50 (MALME-3M; Homo sapiens, MALME-3M, five-dose, read-out: LC50 (the source's name)): 8840 nM | Growth % (MALME-3M; MALME-3M (Melanoma), 1 dose 10 µM): −85.67% | TGI (MALME-3M; MALME-3M, five-dose): 1510 nM | GI50 (SK-MEL-2; Homo sapiens): 1290 nM | CC50 (SK-MEL-2; [1]): 16200 nM | TGI (SK-MEL-2): 3330 nM | GI50 (SK-MEL-5; Homo sapiens, five-dose): 888 nM | CC50 (SK-MEL-5; Homo sapiens, five-dose, read-out: LC50 (the source's name)): 2890 nM | Growth % (SK-MEL-5; 1 dose 10 µM): −84.06% | TGI (SK-MEL-5; five-dose): 1600 nM | GI50 (UACC-257; Homo sapiens): 985 nM | CC50 (UACC-257; [1]): 4880 nM | TGI (UACC-257): 2190 nM | TGI (A498): 2420 nM | GI50 (A498; Homo sapiens): 927 nM | CC50 (A498; [1]): 7920 nM | GI50 (ACHN; Homo sapiens): 1330 nM | LC50 (ACHN; Homo sapiens): 14800 nM | TGI (ACHN): 4380 nM | TGI (CAKI-1): 2960 nM | GI50 (CAKI-1; Homo sapiens): 946 nM | CC50 (CAKI-1; [1]): 11200 nM | GI50 (SN12C; Homo sapiens): 776 nM | CC50 (SN12C; [1]): 2810 nM | TGI (SN12C): 1480 nM | GI50 (TK-10; Homo sapiens): 1270 nM | CC50 (TK-10; [1]): 20300 nM | TGI (TK-10): 4140 nM | GI50 (HS 578T; Homo sapiens): 1070 nM | CC50 (HS 578T; [1]): 26500 nM | TGI (HS 578T): 2680 nM | GI50 (MDA-MB-468; Homo sapiens): 931 nM | CC50 (MDA-MB-468; [1]): 9270 nM | TGI (MDA-MB-468): 2320 nM
